Test results from paper PMC12606464, “Investigating NFE2L1 activators for targeted protein aggregate clearance: a follow-up study” (RSC Medicinal Chemistry, 2025).

Columns and labels:
[1] = tested on: chymotrypsin-like activity of the 26S proteasome; experiment: Proteasome activity assay in MCF7 cell lysates; assay type: cell-based; conditions: for Geometric mean, Treatment (Control = 1): MCF7, Figure S6
Method: (§1) Building on previous findings, we investigated how selected RUN compounds influence proteasomal function itself. Specifically, we examined the chymotrypsin-like activity of the 26S proteasome following a 16 hour treatment with 7.5 μM RUN compounds in the HEK293 cell line. […] In addition, two other cell lines, MCF7 and SH-SY5Y, were measured (see the SI, Fig. S6).
(§2) Figure S6: RUN compounds enhance chymotrypsin-like activity of the 26S proteasome in […]
(§3) Cells were treated with 5 µM RUN compounds for 16 hours, with DMSO (0.5%) as the vehicle control. Proteasome chymotrypsin-like activity was measured in cell lysates at 37 °C. Four independent experiments were conducted. Statistical analysis was performed using ratio paired t-tests corrected for multiple comparisons with the Holm-Šídák's method (α = 0.05). Detailed results of the analysis are shown in Supplementary Table S16. […]
(§4) 2.7 Proteasome activity assay
(§5) The corresponding cell lines (HEK293, MCF7, or SH-SY5Y) were seeded into 6-well plates and allowed to adhere overnight under standard culture conditions. On the following day, HEK293 cells were treated with 7.5 µM RUN compounds, whereas MCF7 and SH-SY5Y cells were treated with 5 µM RUN compounds, for 16 hours each. After treatment, cells were harvested, resuspended in lysis buffer (50 mM HEPES, pH 7.5; 5 mM EDTA; 150 mM NaCl; 2 mM ATP; 1% Triton), and centrifuged at 15,000 rpm for 15 minutes at 4 °C. The resulting lysates (25 µg total protein) were incubated with 200 µM of the fluorogenic substrate Suc-Leu-Leu-Val-Tyr-AMC (Bachem, I1395) in assay buffer (50 mM Tris, pH 8.0; 10 mM MgCl₂; 1 mM ATP; 1 mM DTT) at 37 °C. Free AMC release was detected by measuring fluorescence at 360/460 nm. Results of RUN compounds were compared to the DMSO control using a ratio paired t-test corrected for multiple comparisons with the Holm-Šídák's method (α = 0.05) in GraphPad Prism (v 10.6.1).
(§6) 2.8 XBP1-endoplasmic reticulum (ER) stress reporter assay […]
(§7) Two sets of comparisons: 1) […]
(§8) treatment with MG132 inhibitor or RUN compounds with DMSO control, 2) RUN compounds vs MG132, were done by two-way repeated-measures ANOVA with Geisser–Greenhouse correction, followed by Dunnett’s multiple comparisons test with individual variances in […]
(§9) HCT116 parental cells (WT) and two independent DDI2 knockout clones (KO 04 and KO 11), in which NFE2L1 activation is impaired, were transiently transfected with plasmids encoding either a non-aggregating EGFP-HttQ23 or an aggregation-prone EGFP-HttQ74 construct using Lipofectamine 2000 (Thermo Fisher Scientific) according to the manufacturer’s

[2] = tested on: HEK293 cells; experiment: alamarBlue cytotoxicity assessment in HEK293 cells; assay type: cell-based, human; conditions: for Mean 1 (viability; 0 µM = 100): Fig. S2, n = 3; for Tox [% of ctrl.]: HEK293, alamarBlue, 16 h, concentration not given
Method in brief: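 HEK293 cells exposed 16 h to compound at 1.25, 2.5, 5, 7.5 and 10 µM, with DMSO as vehicle control. Viability read by alamarBlue; means ± SD of three independent experiments.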

[3] = tested on: chymotrypsin-like activity of the 26S proteasome; experiment: Proteasome activity assay in SH-SY5Y cell lysates; assay type: cell-based, human; conditions: for Geometric mean, Treatment (Control = 1): SH-SY5Y, Figure S6
Method: as §1, §2, §3, §4, §5, §6, §7, §8, §9

[4] = tested on: NFE2L1 pathway; experiment: 3×PSMA4-ARE-LUC reporter with or without N-acetyl-L-cysteine (NAC); assay type: cell-based, human; conditions: HEK293, 5 μM, 16 h
Source text: We next examined whether the selected RUN compounds activate the NFE2L1 pathway in a stress-independent manner, while preserving normal ubiquitin-dependent proteasomal degradation. This distinction is crucial, as the therapeutic benefit of NFE2L1 activation lies in its ability to alleviate proteotoxic stress and target disease-related proteins for degradation without compromising normal proteostasis. To assess this, U2OS cells stably expressing the short-lived fluorescent reporter Ub-G76V-GFP were treated with various concentrations of RUN compounds. […] We also examined whether compound-induced activation of NFE2L1 could be attributed to the generation of reactive oxygen species (ROS). To test this, the 3×PSMA4-ARE-LUC reporter assay was performed in the presence or absence of the antioxidant N-acetyl-L-cysteine (NAC). A decrease in reporter activity upon NAC treatment would indicate pathway activation through oxidative stress. […]
To determine whether RUN compounds activate the NFE2L1 pathway via reactive oxygen species (ROS) generation or through Keap1-NRF2 pathway crosstalk, we used the 3xPSMA4-ARE-LUC dual reporter assay in HEK293 cells. […] A reduction in luminescence signal upon NAC co-treatment would indicate that the compound activates the reporter via ROS-mediated mechanism or Keap1-NRF2-dependent oxidative/electrophilic stress. […]

Row | SMILES | Geometric mean, Treatment (Control = 1) [1] | Mean 1 (viability; 0 µM = 100) ([2]; 5 uM) | Mean 1 (viability; 0 µM = 100) ([2]; 10 uM) | Mean 1 (viability; 0 µM = 100) ([2]; 1,125 uM) | Mean 1 (viability; 0 µM = 100) ([2]; 2,5 uM) | Mean 1 (viability; 0 µM = 100) ([2]; 7,5 uM) | Tox [% of ctrl.] [2] | Geometric mean, Treatment (Control = 1) [3] | Proteasome chymotrypsin-like activity in MCF-7 cells ([1]; 5 μM, 16 h) | Proteasome chymotrypsin-like activity in SH-SY5Y cells ([3]; 5 μM, 16 h) | NFE2L1 reporter activation in the presence of NAC [4]
1 | COc1ccc(/C=C2\CC(N)C/C(=C\c3ccc(OC)c(OC)c3)C2=O)cc1OC (stereo not drawn) [RUN-81] | 1.11 | 80.55 | 79.08 | 98.04 | 92.22 | 79.02 | 84% of ctrl. | 1.28 | – | – | –
2 | COc1ccc(/C=C2\CC(NC(=O)C3CCCC3)C/C(=C\c3ccc(OC)c(OC)c3)C2=O)cc1OC (stereo not drawn) [RUN-89] | 1.38 | 76.01 | 68.72 | 100.7 | 91.49 | 71.31 | 81% of ctrl. | 1.88 | greatest increase | higher median for RUN-89 without reaching statistical significance | –
3 | COc1ccc(/C=C2\CC(NC(=O)c3ccccn3)C/C(=C\c3ccc(OC)c(OC)c3)C2=O)cc1OC (stereo not drawn) [RUN-94] | 1.26 | 86.01 | 74.87 | 105.6 | 101.6 | 75.79 | 78% of ctrl. | 1.50 | – | – | retained its activity
